Consider two molecules from patent US20200199104A1, “Novel Polymorphic Forms of a TGFBeta Inhibitor” (PFIZER INC., priority 2018, published 2020).

This series is described as follows: Critical water activity of solid forms, samples tested by powder X-ray diffraction. It is filed as physicochemical. From the text: Critical water activity is a phase boundary above which a hydrate is a stable form. […] Values of aw. correspond to percent humidity, where the percent humidity is described as 100 x aw. Thus 0.1 aw corresponds to 10% humidity, 0.2 aw corresponds to 20% humidity, and so on. The claimed polymorphic forms of Compound 1 mono-hydrochloride interconvert between Form 1 and Form 2 at a critical water activity of between 0.60 and 0.65 (corresponding to a relative humidity of between 60% and 65%). The critical water activity of the free base form of Compound 1 is between 0.2 and 0.3 (corresponding to a relative humidity between 20% and 30%). It is noted that manufacturing processes are routinely run at relative humidities that exceed 30% relative humidity, but manufacturing processes run at relative humidities of >60% are unusual. Samples were tested using powder X-ray diffraction. Analysis was conducted using a Bruker AXS D8 Endeavor diffractometer equipped with a Cu radiation source. The divergence slit was set at 6 mm continuous illumination. Diffracted radiation was detected by a PSD-Lynx Eye detector, with the detector PSD opening set at 4.104 degrees. The X-ray tube voltage and amperage were set to 40 kV and 40 mA respectively. Data was collected in the Theta-Theta goniometer at the Cu wavelength from 3.0 to 40.0 degrees 2-Theta using a step size of 0.020 degrees and a step time of 0.3 second. Samples were prepared by placing them in a silicon low background sample holder and rotated during collection. Data were collected using Bruker DIFFRAC Plus software and analysis was performed by EVA diffract plus software.

For the molecule `CC(C)c1cnc(-c2cc(Cl)ccc2F)cc1Nc1ccncc1C(=O)NC(CO)CO` [Compound 1, Free Base, 4-(2-(5-chloro-2-fluorophenyl)-5-isopropylpyridin-4-ylamino)-N-(1,3-dihydroxypropan-2-yl)nicotinamide], the “PXRD Result (solid form)” value runs as follows: (Water Activity at Room Temperature 0.1 aw) “free base anhydrous”; (Water Activity at Room Temperature 0.2 aw) “free base anhydrous”; (Water Activity at Room Temperature 0.3 aw) “free base monohydrate”; (Water Activity at Room Temperature 0.5 aw) “free base monohydrate”; (Water Activity at Room Temperature 1.0 Aw) “free base monohydrate”.
For `CC(C)c1cnc(-c2cc(Cl)ccc2F)cc1Nc1ccncc1C(=O)NC(CO)CO.Cl` [Compound 1, mono-HCl salt, 4-(2-(5-chloro-2-fluorophenyl)-5-isopropylpyridin-4-ylamino)-N-(1,3-dihydroxypropan-2-yl)nicotinamide mono hydrochloride], the “PXRD Result (solid form)” value was “Form 1” (Water Activity at Room Temperature 0.60 aw); “Form 2” (Water Activity at Room Temperature 0.65 aw); “Form 2” (Water Activity at Room Temperature 0.70 aw); “Form 2” (Water Activity at Room Temperature 0.75 aw); “Form 2” (Water Activity at Room Temperature 0.80 aw).
